In article PMC10459838 (Veterinary Sciences, 2023):
Where two headings read alike, the source gives them in different places.

How the values were obtained:
[1] = Cell viability assay (MTT, Cell Proliferation Kit I); format: cell-based, feline; settings: cat
Method: (§1) The Crandell-Reese feline kidney (CRFK) cells utilized in this study were purchased from American Type Culture Collection (ATCC, Manassas, VA, USA), and cultured in Eagle’s Minimum Essential Medium (EMEM) medium supplemented with 10% fetal bovine serum (FBS), 1% antibiotics (penicillin and streptomycin), and 1% non-essential amino acids. The reagents were obtained from ATCC. The CRFK cells were incubated at 37 °C with 5% CO2.
(§2) The cell viability of CRFK cells was measured using a Cell Proliferation Kit I (MTT) (Roche Applied Science, Indianapolis, IN, USA), following the manufacturer’s instructions. […] After incubation for 48 h, 10 μL of MTT solution (0.5 mg/mL in phosphate-buffered saline) was added to each well. The plate was incubated for 4 h at 37 °C to allow the formation of formazan crystals. Following incubation, 1% sodium dodecyl sulfate (100 μL) solution was added to dissolve the crystals.

[2] = tested on: CRFK cells; experiment: as above; format: cell-based, feline
Method: as §1, §2

[3] = tested on: FIPV serotype II strain (WSU-79-1146); experiment: Antiviral efficacy against FIPV replication in CRFK cells, viral load by qRT-PCR; format: cell-based, feline infectious peritonitis virus; settings: for Viral load (FIPV RNA copies) / FIPV viral copies with GS441524: GS441524 25 µM; for Viral load (FIPV RNA copies): inoculum […] 10^4 TCID50/mL; for Selectivity index (SI) = (mean CC50)/(mean EC50): against FIPV in CRFK cells
[4] = tested on: CRFK cells; settings: 48 h
[5] = tested on: FIPV; parameters: method as in earlier work; settings: ref 39 (Jiao, Yan et al.); cited from earlier work
[6] = tested on: COVID-19; parameters: method as in PMID 34933447; settings: co-administered with ritonavir within 3 to 5 days of COVID-19 symptom onset; cited from earlier work
[7] = CRFK cells treated with drugs for 48 h, MTT assay (Figure 5), read-out: 50% cytotoxic concentration (CC50)
[8] = Alphacoronavirus 1, CRFK, 48 h, CRFK cells, FIPV […] 10^4 TCID50/mL, 48 h, qRT-PCR, read-out: 50% effective concentration (EC50) against FIPV replication
[9] = CRFK cells, FIPV […] 10^4 TCID50/mL, 48 h, qRT-PCR, read-out: 50% effective concentration (EC50) against FIPV replication
[10] = CRFK cells (Crandell-Reese feline kidney), CRFK cells treated with drugs for 48 h, MTT assay (Figure 5), read-out: 50% cytotoxic concentration (CC50)

SMILES: N#C[C@@]1(c2ccc3c(N)ncnn23)O[C@H](CO)[C@@H](O)[C@H]1O [GS441524, GS-441524]
- CC50 at 48 h [1, 7]: 260 µM
- CC50 [2, 7]: 260 µM
- Cytopathic effects (CPEs) in FIPV-infected cells ([3]; 0.5 µM, 10-fold dilutions): no CPEs observed in cells
- Reduction in FIPV copy number ([3]; 0.98 µM, two-fold dilutions, 48 hpi): 22.5%
- Lowest concentration with anti-FIPV efficacy compared to no-drug group ([3]; 10-fold dilutions, 48 hpi): 0.5 µM
- EC50 [3, 8]: 1.57 µM
- inhibition at 0.5 µM ([3]; Alphacoronavirus 1, CRFK, 0.5 µM, 10-fold dilutions, 48 hpi): 85%
- inhibition at […] ([3]; Alphacoronavirus 1, CRFK, 7.8 µM, two-fold dilutions, 48 hpi): 98.3%
- EC50 [3, 9]: 1.6 µM
- Viral load (FIPV RNA copies) ([3]; 0 hpi (applied at inoculation, remained), 24 h): 2.58 × 10^4 per ml
- Viral load (FIPV RNA copies) ([3]; 0 hpi, 48 h): 1.97 × 10^4 per ml
- Viral load (FIPV RNA copies) ([3]; 0 hpi, 72 h): 2.04 × 10^4 per ml
- Viral load (FIPV RNA copies) ([3]; +1 hpi (applied 1 h post inoculation), 24 h): 2.84 × 10^4 per ml
- Viral load (FIPV RNA copies) ([3]; +1 hpi, 48 h): 1.52 × 10^4 per ml
- Viral load (FIPV RNA copies) ([3]; +1 hpi, 72 h): 1.39 × 10^4 per ml
- FIPV viral copies with GS441524 ([3]; FIPV inoculum […] 10^2 TCID50/mL, 48 h): 4.60 × 10^1 per ml
- FIPV viral copies with GS441524 ([3]; FIPV inoculum […] 10^2 TCID50/mL, 72 h): 2.36 × 10^1 per ml
- FIPV viral copies with GS441524 ([3]; FIPV inoculum […] 10^3 TCID50/mL, 48 h): 3.48 × 10^2 per ml
- FIPV viral copies with GS441524 ([3]; FIPV inoculum […] 10^3 TCID50/mL, 72 h): 2.09 × 10^2 per ml
- FIPV viral copies with GS441524 ([3]; FIPV inoculum […] 10^4 TCID50/mL, 48 h): 2.76 × 10^3 per ml
- FIPV viral copies with GS441524 ([3]; FIPV inoculum […] 10^4 TCID50/mL, 72 h): 3.24 × 10^3 per ml
- Viral load (FIPV RNA copies) ([3]; −2 & +1 hpi (applied 2 h before, removed, applied again at 1 hpi), 24 h): 2.47 × 10^4 per ml
- Viral load (FIPV RNA copies) ([3]; −2 hpi (applied 2 h before inoculation, removed before inoculation), 24 h): 1.97 × 10^4 per ml
- Viral load (FIPV RNA copies) ([3]; −2 hpi, 48 h): 2.94 × 10^5 per ml
- Viral load (FIPV RNA copies) ([3]; −2 hpi, 72 h): 6.89 × 10^6 per ml
- Lowest concentration with antiviral efficacy ([3]; two-fold dilutions, 48 hpi): 0.98 µM

SMILES: CC(C)C(=O)OC[C@H]1O[C@@H](n2ccc(NO)nc2=O)[C@H](O)[C@@H]1O [Molnupiravir]
- CC50 at 48 h [1, 10]: 235 µM
- CC50 [2, 7]: 235 µM
- Concentration as high as which the drug could be used safely with minimal cytotoxicity ([2]; CRFK cells, 48 h, MTT staining): 63 µM
- EC50 [3, 8]: 8 µM
- EC50 [3, 9]: 8.04 µM
- Selectivity index (SI) = (mean CC50)/(mean EC50) [3]: 29.3
- Selectivity index (SI) = (mean CC50)/(mean EC50) ([3]; listed as molnupiravir): 29.27
- Highest concentration with essentially no cytotoxicity ([4]; CRFK cells, CellTox Green): 63 µM

SMILES: CC(C)(C)[C@H](NC(=O)C(F)(F)F)C(=O)N1C[C@H]2[C@@H]([C@H]1C(=O)N[C@H](C#N)C[C@@H]1CCNC1=O)C2(C)C [Nirmatrelvir]
- EC50 [5]: 2.52 µM
- CC50 at 48 h [1, 7]: 279 µM
- Concentration as high as which the drug could be used safely with minimal cytotoxicity ([2]; CRFK cells, 48 h, MTT staining): 63 µM
- Cytopathic effects (CPEs) in FIPV-infected cells ([3]; 5 µM, 10-fold dilutions): no CPEs in cells
- EC50 ([3]; Alphacoronavirus 1, CRFK, 48 h, read-out: 50% effective concentration (EC50) against FIPV replication, CRFK cells, FIPV […] 10^4 TCID50/mL, 48 h, qRT-PCR): 2.46 µM
- inhibition at 5 µM ([3]; Alphacoronavirus 1, CRFK, read-out: Inhibition of FIPV replication): 80%
- Selectivity index (SI) = (mean CC50)/(mean EC50) [3]: 113.7
- Selectivity index (SI) = (mean CC50)/(mean EC50) ([3]; listed as nirmatrelvir): 113.67
- EC50 ([3]; read-out: 50% effective concentration (EC50) against FIPV replication, CRFK cells, FIPV […] 10^4 TCID50/mL, 48 h, qRT-PCR): 2.5 µM
- Reduction in hospitalizations and death [6]: 89%
- Highest concentration with essentially no cytotoxicity ([4]; CRFK cells, CellTox Green): 63 µM

SMILES: CC(C)c1nc(CN(C)C(=O)N[C@H](C(=O)N[C@@H](Cc2ccccc2)C[C@H](O)[C@H](Cc2ccccc2)NC(=O)OCc2cncs2)C(C)C)cs1 [Ritonavir]
- Concentration as high as which the drug could be used safely with minimal cytotoxicity ([2]; cat, 48 h): 16 µM
- Cytopathic effects (CPEs) in FIPV-infected cells ([3]; 5 µM, 10-fold dilutions): induced CPEs
- Cytopathic effects (CPEs) in FIPV-infected cells ([3]; 50 µM, 10-fold dilutions): induced CPEs
- EC50 [3, 8]: 17.6 µM
- Highest concentration with essentially no cytotoxicity ([4]; cat): 16 µM
- Lowest concentration at which cytotoxicity was observed ([4]; cat): 31 µM

SMILES: N#CC[C@H](C1CCCC1)n1cc(-c2ncnc3[nH]ccc23)cn1 [Ruxolitinib]
- CC50 at 48 h ([1]; 50% cytotoxic concentration (CC50)): 338 µM
- CC50 ([2]; cat, 48 h): 338 µM
- EC50 ([3]; Alphacoronavirus 1, CRFK, 48 h, read-out: 50% effective concentration (EC50) against FIPV replication): 43.6 µM
- Lowest concentration at which cytotoxicity was observed ([4]; CRFK cells, cytotoxicity assay): 250 µM

SMILES: C/C(O)=C(\C#N)C(=O)Nc1ccc(C(F)(F)F)cc1 [Teriflunomide]
- CC50 at 48 h [1, 10]: 134 µM
- Concentration as high as which the drug could be used safely with minimal cytotoxicity ([2]; CRFK cells, 48 h, MTT staining): 62.5 µM
- EC50 [3, 8]: 49.6 µM
- Highest concentration with essentially no cytotoxicity ([4]; cat): 63 µM
